Source: the NIST ThermoML archive (doi:10.1016/j.jct.2013.09.024)
± gives the expanded uncertainty stated by the source.

Assay: excess molar enthalpy (molar enthalpy of mixing); xn = mol fraction of the nth substance listed
Settings: 101 kPa, Liquid, Flow calorimetry

CC1(C)C(=O)[C@]2(C)CC[C@H]1C2 [(-)-fenchone] + CCO
excess molar enthalpy [kcal/mol]
Settings	283.15 K	298.15 K	313.15 K	328.15 K
x1 = 0.048	0.0418 ± 0.00311	0.0476 ± 0.00335	0.0528 ± 0.00382	0.0586 ± 0.00406
x1 = 0.097	0.0805 ± 0.00502	0.0913 ± 0.00574	0.102 ± 0.00645	0.112 ± 0.00693
x1 = 0.195	0.141 ± 0.0086	0.159 ± 0.0098	0.178 ± 0.0108	0.196 ± 0.012
x1 = 0.286	0.184 ± 0.0112	0.209 ± 0.0127	0.234 ± 0.0141	0.258 ± 0.0155
x1 = 0.395	0.218 ± 0.0131	0.249 ± 0.0151	0.278 ± 0.0167	0.306 ± 0.0186
x1 = 0.488	0.23 ± 0.0139	0.265 ± 0.016	0.297 ± 0.0179	0.326 ± 0.0198
x1 = 0.601	0.229 ± 0.0139	0.262 ± 0.0158	0.291 ± 0.0177	0.318 ± 0.0194
x1 = 0.701	0.21 ± 0.0127	0.239 ± 0.0146	0.264 ± 0.016	0.286 ± 0.0174
x1 = 0.801	0.172 ± 0.0105	0.193 ± 0.0117	0.211 ± 0.0129	0.227 ± 0.0139
x1 = 0.894	0.104 ± 0.00645	0.12 ± 0.00741	0.131 ± 0.00813	0.14 ± 0.00884
x1 = 0.945	0.0569 ± 0.00382	0.065 ± 0.00454	0.071 ± 0.00502	0.076 ± 0.00526
